Results on 14 molecules are retold here after the SangsterLogP compilation.

The data set is described as follows: method code SF-AS, from DOI: 10.1248/cpb.22.2064. Particulars: pH 7.4.
Usually logD stands for lipophilicity at a set pH, counting ionised and neutral species. Low values mean lower lipophilicity, high ones higher lipophilicity. Consider `Cc1c(N(C)C)c(=O)n(C)c(=O)n1C1CCCCC1`, for which the logD was found to be 2.94. Molecule `Cc1c(N(C)C)c(=O)n(C2CCCC2)c(=O)n1C` yielded a logD of 2.65. The figure for `Cc1c(N2CCCC2)c(=O)n(C)c(=O)n1C1CCCCC1` is 3.55; for `Cc1c(NCC(C)C)c(=O)n(-c2ccccc2)c(=O)n1-c1ccccc1` it is 2.4. In turn, `Cc1c(N2CCOCC2)c(=O)n(-c2ccccc2)c(=O)n1C1CCCCC1` returned a logD of 2.37. `Cc1c(N2CCOCC2)c(=O)n(-c2ccccc2)c(=O)n1-c1ccccc1` showed a logD of 1.44. The figure for `Cc1c(N2CCCC2)c(=O)n(C)c(=O)n1-c1ccccc1` is 2.68. Regarding `Cc1c(N(C)C)c(=O)[nH]c(=O)n1C1CCCCC1`, the logD came to 2.53.

In turn, `Cc1c(N(C)C)c(=O)n(C2CCCCC2)c(=O)n1C` gave a logD of 3.02. On to `Cc1c(N2CCCCC2)c(=O)n(-c2ccccc2)c(=O)n1-c1ccccc1`, for which the logD worked out at 3.24. The figure for `Cc1c(NCC(C)C)c(=O)n(-c2ccccc2)c(=O)n1C1CCCCC1` is 3.27. The figure for `Cc1c(N2CCCCC2)c(=O)n(C)c(=O)n1-c1ccccc1` is 3.21. The result for `Cc1c(N(C)C)c(=O)n(Cc2ccccc2)c(=O)n1C` reads 2.47.

`Cc1c(N2CCCCC2)c(=O)n(C)c(=O)n1C1CCCCC1` returned a logD of 3.68.
